In patent publication US10981932B2, “Macrocyclic indole derivatives” (Bayer Aktiengesellschaft, priority 2016, dated 2021):
Where a name gives a salt, the structure may show the parent alone. Read-outs that look alike come from different tables or passages of the source.

Experiments:
A2780 = test: Anti-proliferative effect (CellTiter-Glo, 72 h), A2780; format: cell-based; conditions: A2780 cells, median, read-out: IC50 antiproliferation assay A2780 [M] (median)
How it was run: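 CTG luminescence read-out after 72 h compound exposure, 37 °C, humidified. Time-zero reference plate read at plating.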

BCL-2 = target: T1, BCL-2 (Homo sapiens, UniProt P10415); test: Protein-protein interaction assay BCL-2/Bad BH3 peptide (BCL-2 assay), TR-FRET; format: binding; conditions: His-BCL-2 / Bad BH3-derived peptide, median
T1 construct: BCL-2 (amino acids 1-211, C-terminal fused to a hexahistidine (6×His) tag); purchased BPS Bioscience (San Diego, Calif., USA); host or cells: E. coli
Procedure: Protein-Protein Interaction Assay: BCL-2/Bad BH3 Peptide (BCL-2 Assay)
The dose-dependent inhibition by the compounds described in this invention of the interaction between BCL-2 and the BH3 domain of Bad (both human) was determined using a steady state binding competition assay with time-resolved fluorescence energy transfer (TR-FRET) readout. For that purpose BCL-2 (amino acids 1-211, C-terminal fused to a hexahistidine (6×His) tag and a synthetic Bad BH3-derived peptide of sequence Biotin-PEG2-PEG2-NLWAAQRYGRELRR-Nle-SDEFVDSFKK-amide (SEQ ID NO: 2) served as protein receptor and tracer ligand respectively. The recombinant BCL-2 protein (expressed in E. coli) was purchased from BPS Bioscience (San Diego, Calif., USA). The Bad BH3-derived peptide can be obtained from e.g. Biosyntan (Berlin, Germany).
In the assay 11 different concentrations of each compound (0.1 nM, 0.33 nM, 1.1 nM, 3.8 nM. 13 nM, 44 nM, 0.15 μM, 0.51 μM, 1.7 μM, 5.9 μM and 20 μM) were typically measured as duplicates in the same microtiter plate. For that, 100-fold concentrated DMSO solutions were prepared by serial dilutions (1:3.4) of a 2 mM stock solution in a clear, 384-well microtiter plate (Greiner Bio-One, Frickenhausen, Germany). From there, 50 nl were transferred in a dark test plate (Greiner Bio-One. Frickenhausen, Germany). The assay was initiated by addition of 2 μl of a 2,5-fold concentrated His-BCL-2 solution (usually for a 1 nM end concentration in 5 μl reaction volume) in aqueous assay buffer [50 mM Tris/HCl pH 7, 100 mM sodium chloride (NaCl), 50 mM potassium fluoride (KF), 0.005% Tween-20, 2 mM DTT, 0.1% bovine gamma globulin (BGG)] to the compounds in the assay plate. This was followed by a 10-minute incubation step at 22° C. for pre-equilibration of the putative complex between His-BCL-2 and the compounds.
The mixture was incubated in the dark for one hour at 22° C. and then overnight at 4° C. The formation of BCL-2/Bad complexes was determined by measuring the resonance energy transfer of the anti-His-Eu-cryptate antibody to the streptavidin-XL665 present in the reaction. For that purpose, the fluorescence emission at 620 nm and 665 nm after excitation at 330-350 nm was measured in a TR-FRET measuring instrument, for instance a Rubystar or a Pherastar (both from BMG Lab Technologies. Offenburg, Germany) or a Viewlux (Perkin-Elmer). The ratio of the emission at 665 nm and at 622 nm was used as indicator of the amount of BCL-2/Bad complexes present.
The resulting data (ratio) were normalized, taking 0% inhibition as the mean value of control measurements (usually 32 data points) where all reagents were included. In this case 50 nl DMSO were used instead of compounds. A 100% inhibition corresponded to the mean value of control measurements (usually 32 data points) where all reagents except BCL-2 were included. IC50 values were determined by regression analysis based on a 4 parameter equation (minimum, maximum, IC50, Hill; Y=Max+(Min−Max)/(1+(X/IC50)^Hill) using the Screener Software (Genedata).

T1 sequence (P10415 1-211): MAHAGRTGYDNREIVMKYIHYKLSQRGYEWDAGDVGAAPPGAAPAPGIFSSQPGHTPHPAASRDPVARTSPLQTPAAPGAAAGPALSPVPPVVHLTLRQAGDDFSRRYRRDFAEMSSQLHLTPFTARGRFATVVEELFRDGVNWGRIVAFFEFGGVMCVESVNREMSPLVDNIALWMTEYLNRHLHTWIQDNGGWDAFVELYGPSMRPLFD

CCc1c2c(nn1C)CN(C)CCCn1c(C(=O)O)c(CCCOc3cccc4ccccc34)c3ccc(C)c-2c31 (racemic) [Example 144, (rac)-11-ethyl-7,10,12-trimethyl-1-[3-(1-naphthyloxy)propyl]-4,5,6,7,8,10-hexahydropyrazolo[3′,4′:7,8][1,5]diazecino[9,10,1-hi]indole-2-carboxylic Acid]
IC50 (A2780; Homo sapiens, A2780, 72 h): 1.17e-05 M
IC50 (BCL-2): > 20 µM

CC(C)OCc1nn(C)c2c1-c1cccc3c(CCCOc4cccc5ccccc45)c(C(=O)O)n(c13)CCCCN(C)C2 (single isomer, unassigned) [Example 1-74, 1,14-dimethyl-7-[3-(naphthalen-1-yloxy)propyl]-3-[(propan-2-yloxy)methyl]-10,11,12,13,14,15-hexahydro-1H-pyrazolo[3′,4′:8,9][1,6]diazacycloundecino[10,11,1-hi]indole-8-carboxylic Acid]
IC50 (A2780; Homo sapiens, A2780, 72 h): 1.91e-05 M
IC50 (BCL-2): > 20 µM

Cn1nc(COc2ccc(N3CCN(S(C)(=O)=O)CC3)cc2)c2c1COCCCCn1c(C(=O)O)c(CCCOc3cccc4ccccc34)c3cccc-2c31 (single isomer, unassigned; enantiomer 2) [Example 1-10, 1-methyl-3-({4-[4-(methylsulfonyl)piperazin-1-yl]phenoxy}methyl)-7-[3-(naphthalen-1-yloxy)propyl]-1,10,11,12,13,15-hexahydropyrazolo[4′,3′:9,10][1,6]oxazacycloundecino[8,7,6-hi]indole-8-carboxylic acid (enantiomer 2)]
IC50 (A2780): 1.19e-05 M
IC50 (BCL-2): > 20 µM

CCc1c2c(nn1C)COCCCCn1c(C(=O)O)c(CCCOc3cccc4ccccc34)c3ccc(C)c-2c31 (racemic) [Example 153, (rac)-3-Ethyl-2,4-dimethyl-7-[3-(1-naphthyloxy)propyl]-2,10,11,12,13,15-hexahydropyrazolo[4′,3′:9,10][1,6]oxazacycloundecino[8,7,6-hi]indole-8-carboxylic Acid]
IC50 (A2780; Homo sapiens, A2780, 72 h): 1.52e-05 M
IC50 (BCL-2): > 20 µM

CCn1nc2c(c1C1CC1)-c1cccc3c(CCCOc4cccc5ccccc45)c(C(=O)O)n(c13)CCCCOC2 (single isomer, unassigned; enantiomer 1) [Example 082, 3-cyclopropyl-2-ethyl-7-[3-(naphthalen-1-yloxy)propyl]-2,10,11,12,13,15-hexahydropyrazolo[4′,3′:9,10][1,6]oxazacycloundecino[8,7,6-hi]indole-8-carboxylic acid-N-ethylethanamine Salt (Enantiomer 1)]
IC50 (A2780; Homo sapiens, A2780, 72 h): 1.68e-05 M
IC50 (BCL-2): > 20 µM

Cc1c2c(nn1C)COCCCCn1c(C(=O)O)c(CCCOc3cccc4ccccc34)c3cccc-2c31 (single isomer, unassigned; enantiomer 1) [Example 1-37, (+)-2,3-dimethyl-7-[3-(naphthalen-1-yloxy)propyl]-2,10,11,12,13,15-hexahydropyrazolo[4′,3′:9,10][1,6]oxazacycloundecino[8,7,6-hi]indole-8-carboxylic Acid (Enantiomer 1)]
IC50 (A2780; Homo sapiens, A2780, 72 h): 3.02e-05 M
IC50 (BCL-2): > 20 µM

Cc1nn(C)c2c1-c1cccc3c(CCCOc4cccc5ccccc45)c(C(=O)O)n(c13)CCCCOCC2 (racemic) [Example 017, (rac)-1,3-dimethyl-7-[3-(1-naphthyloxy)propyl]-10,11,12,13,15,16-hexahydro-1H-pyrazolo[4′,3′:9,10][1,6]oxazacyclododecino[8,7,6-hi]indole-8-carboxylic Acid]
IC50 (A2780; Homo sapiens, A2780, 72 h): > 3.3e-05 M
IC50 (BCL-2): > 20 µM

Cc1c2c(nn1CCN1CCOCC1)CN(C)CCCn1c(C(=O)O)c(CCCOc3cccc4ccccc34)c3cccc-2c31 (single isomer, unassigned; enantiomer 2) [Example 061, 7,11-dimethyl-10-[2-(morpholin-4-yl)ethyl]-1-[3-(naphthalen-1-yloxy)propyl]-4,5,6,7,8,10-hexahydropyrazolo[3′,4′:7,8][1,5]diazecino[9,10,1-hi]indole-2-carboxylic Acid (Enantiomer 2)]
IC50 (A2780): 1.14e-05 M
IC50 (BCL-2): > 20 µM

Cc1c2c(nn1CCN1CCOCC1)CN(C)CCCn1c(C(=O)O)c(CCCOc3cccc4ccccc34)c3cccc-2c31 (single isomer, unassigned; enantiomer 1) [Example 060, 7,11-dimethyl-10-[2-(morpholin-4-yl)ethyl]-1-[3-(naphthalen-1-yloxy)propyl]-4,5,6,7,8,10-hexahydropyrazolo[3′,4′:7,8][1,5]diazecino[9,10,1-hi]indole-2-carboxylic Acid (Enantiomer 1)]
IC50 (A2780; Homo sapiens, A2780, 72 h): 2.21e-05 M
IC50 (BCL-2): > 20 µM

CCc1c2c(nn1C)CN(C)CCCn1c(C(=O)O)c(CCCOc3cccc4ccccc34)c3cccc-2c31 (racemic) [Example 141, (rac)-11-ethyl-7,10-dimethyl-1-[3-(1-naphthyloxy)propyl]-4,5,6,7,8,10-hexahydropyrazolo[3′,4′:7,8][1,5]diazecino[9,10,1-hi]indole-2-carboxylic Acid]
IC50 (A2780; Homo sapiens, A2780, 72 h): 1.48e-05 M
IC50 (BCL-2): > 20 µM

CC(C)c1c2c(nn1C)CN(C)CCCn1c(C(=O)O)c(CCCOc3cccc4ccccc34)c3cccc-2c31 (racemic) [Example 113, (rac)-7,10-dimethyl-1-[3-(naphthalen-1-yloxy)propyl]-11-(propan-2-yl)-4,5,6,7,8,10-hexahydropyrazolo[3′,4′:7,8][1,5]diazecino[9,10,1-hi]indole-2-carboxylic Acid]
IC50 (A2780; Homo sapiens, A2780, 72 h): 8.81e-06 M
IC50 (BCL-2): > 20 µM

COCCn1nc2c(c1C1CC1)-c1cccc3c(CCCOc4cccc5ccccc45)c(C(=O)O)n(c13)CCCCOC2 (single isomer, unassigned; enantiomer 1) [Example 085, 3-Cyclopropyl-2-(2-methoxyethyl)-7-[3-(naphthalen-1-yloxy)propyl]-2,10,11,12,13,15-hexahydropyrazolo[4′,3′:9,10][1,6]oxazacycloundecino[8,7,6-hi]indole-8-carboxylic acid-N-ethylethanamine Salt (Enantiomer 1)]
IC50 (A2780; Homo sapiens, A2780, 72 h): 2.15e-05 M
IC50 (BCL-2): > 20 µM

Cc1c2c(nn1C)COCCCCn1c(C(=O)O)c(CCCOc3cccc4ccccc34)c3cccc-2c31 (racemic) [Example 1-36, (rac)-2,3-dimethyl-7-[3-(naphthalen-1-yloxy)propyl]-2,10,11,12,13,15-hexahydropyrazolo[4′,3′:9,10][1,6]oxazacycloundecino[8,7,6-hi]indole-8-carboxylic Acid]
IC50 (A2780; Homo sapiens, A2780, 72 h): > 3.3e-05 M
IC50 (BCL-2): > 20 µM

COCc1nn(C)c2c1-c1cccc3c(CCCOc4cccc5ccccc45)c(C(=O)O)n(c13)CCCN(C)C2 (single isomer, unassigned; enantiomer 2) [Example 1-104, 11-(methoxymethyl)-7,9-dimethyl-1-[3-(1-naphthyloxy)propyl]-4,5,6,7,8,9-hexahydropyrazolo[3′,4′:7,8][1,5]diazecino[9,10,1-hi]indole-2-carboxylic Acid (Enantiomer 2)]
IC50 (BCL-2): > 20 µM

Cn1nc(COc2ccc(N3CCN(C(=O)C4CC4)CC3)cc2)c2c1COCCCCn1c(C(=O)O)c(CCCOc3cccc4ccccc34)c3cccc-2c31 (single isomer, unassigned; enantiomer 1) [Example 1-22, 3-({4-[4-(cyclopropylcarbonyl)piperazin-1-yl]phenoxy}methyl)-1-methyl-7-[3-(naphthalen-1-yloxy)propyl]-1,10,11,12,13,15-hexahydropyrazolo[4′,3′:9,10][1,6]oxazacycloundecino[8,7,6-hi]indole-8-carboxylic Acid (Enantiomer 1)]
IC50 (A2780; Homo sapiens, A2780, 72 h): 1.83e-05 M
IC50 (BCL-2): > 20 µM
